Source: patent US5389621A, “Method of enhancing the anticoagulant effects of aspirin using salicylamide” (University of Medicine and Dentistry of New Jersey, priority 1994, dated 1995)

Columns and labels:
[1] = cited from earlier work
cyclooxygenase = details: in vitro; cited from earlier work
platelet cyclooxygenase = experiment: Thromboxane B2 synthesis by arachidonic acid-stimulated platelet-rich plasma in vitro; type: cell-based, male Sprague-Dawley rats; details: ASA/SA 1:1 w/w, TX B2
From the text: Was done manually by the method of Brecher and Conkite (1953) using phase contrast microscopy (Balplan) with a 40×annulus, 40×phase objective, and 10×ocular (total of 400×), and a special platelet counting chamber (American Optical Corp., Buffalo, N.Y.) and dilution with 1% ammonium oxalate. The platelet-rich plasma (PRP) was adjusted by dilution with platelet-poor plasma (PPP) to give a final count of 1×10^9 platelets/ml.
Arachidonic acid (as the sodium salt, >99.0% pure) was obtained from Sigma Chemical Co. and a stock solution of 34.5 mM was prepared by dissolving in isotonic saline. 20 μl of the stock solution were added to 440 μl of PRP (400 μl of PRP and 20 or 40 μl of treatment solution ±20 μl of saline) to make a 23 fold dilution. The final concentration of AA in PRP was 1.5 mM.
EDTA solution was prepared by adding 2 gm disodium EDTA and 0.8 gm NaCl and were adjusted to pH 7.4 with NaOH and made up to a final volume of 100 ml in distilled water. ASA solution was prepared by dissolving 30 mg in 10 ml of isotonic saline to make a solution of 3 mg/ml.
950 μl of EDTA solution were added to 50 μl of ASA solution and the mixture was vortexed. 40 μl of the mixture were pipetted in the experiment test tubes to stop further prostaglandin production.
Platelet-rich plasma (PRP) was prepared from male Sprague-Dawley rats (300-325 gm). The blood was collected by heart puncture and added to 3.8% citrate solution, final volume 9:1, blood:citrate. The blood was centrifuged at 120×g (750 rpm) for 15 minutes at 4° C. to obtain PRP. The rest of the blood was spun at 1800×g (3000 rpm) for 10 minutes to get the PPP which was used later for dilution of the PRP to achieve the final desired platelet concentration of 1×10^9 platelets/ml. 400 μl of PRP, containing 4×10^8 platelets, were pipetted in polypropylene tubes and the following treatment groups were studied:
1--Baseline (-ve control) tubes: to measure the baseline production of Thromboxane B2 (TX B2) by platelets during the time of the experiment, 60 μl of saline were added and left for 10 minutes in a shaking water bath at 37° C.
2--Control (+ve control) tubes: 20 μl of arachidonic acid (AA) solution were added to achieve a final concentration of 1.5 mM and the tubes were incubated […].
3--ASA and/or SAM treatment tubes: 20 μl of ASA (final conc. 130 μg/ml), 20 μl of SAM solution (final conc. 40 μg/ml), 20 μl of ASA/SAM(L) solution (final conc. 130/40 μg/ml) or 20 μl of ASA/SAM(H) solution (final conc. 130/120 μg/ml) were added to PRP together with 20 μl of saline for 10 minutes, then 20 μl of AA solution were added for additional 10 minutes.
4--ASA/SA treatment: 20 μl of ASA/SA solution (final conc. 130/130 μg/ml) and 20 μl of saline were added to the tubes for 10 minutes before AA was added for further 10 minutes.
5--ASA/SA/SAM treatment: 20 μl of ASA/SA solution (130/130 μg/ml as final conc.) and 20 μl of […] in low (L) or high (H) concentrations (40 or 120 μg/ml, final conc.) were added simultaneously to PRP followed 10 minutes later by AA.
6--SAM/SA treatment: 20 μl of SAM solution (final conc. 40 μg/ml) and 20 μl of SA solution (final conc. 130 μg/ml) were added followed 10 minutes later by AA for additional 10 minutes.
Also, the effect of SAM when administered first to the platelets followed 10 minutes later by ASA was studied to know whether the effect of SAM is time dependent or not.
During the treatment, all the tubes were incubated at 37° C. in a shaking water bath. Ten minutes after the addition of AA, or saline (for the control tubes), the experiment was ended by addition of 40 μl of EDTA/ASA solution. The tubes were immediately centrifuged at 1800×g for 15 minutes at 4° C. to precipitate the platelets and 100 μl of the supernatant were obtained for estimation of their content of TX B2 using a specific radioimmunoassay (Amersham International) (vide infra).
Radioimmunoassay Procedure for Measurement of Thromboxane B2 and 6-keto PG F1alpha […]

[2] = system: lyso-PAF:acetyl-CoA acetyltransferase; details: cited from earlier work

O=C(O)c1ccccc1O [SA, salicylic acid]
Pharmacokinetics linearity ([1]; humans and rats): non-linear and dose-dependent | Distribution and plasma albumin binding ([1]; rat, in vivo): concentration-dependent distribution and plasma albumin binding | Effect on cyclooxygenase (cyclooxygenase): does not have the capacity to inhibit cyclooxygenase | Antagonism of ASA effect by SA (platelet cyclooxygenase): ~ 70% | Effect on lyso-PAF:acetyl-CoA acetyltransferase [2]: inhibitory effect
